ChEMBL document CHEMBL3301562, “MMV Box screening against Plasmodium falciparum protein kinases and aminoacyl tRNA synthetases”
pIC50: −log10 of the molar value.

How the values were obtained:
Format in all cases: functional
[1] = biological target: T1, Cdk-related protein kinase 6 (Plasmodium falciparum, UniProt O77239); test: Final concentrations were 1.5 uM ATP, 5 mM MnCl2, and 15 ug/ml PK6 in a buffer of 100 mM Tris-HCl (pH 7.5). 50 ug/mL MBP was provided as the substrate; 10 uM staurosporine was used as a control inhibitor. Incubation time was 3 hours and 40 minutes.The catalytic activity of each kinase was considered proportional to ATP consumed, as determined from measurements of residual [ATP] with the luciferase-based reagent Kinase-Glo (Promega) following incubation. Luminescence (proportional to residual [ATP]) was measured on the plate readers FLx800 (BioTek Instruments, Winooski, VT, USA) and MicroBeta2.
T1 sequence (O77239 whole entry): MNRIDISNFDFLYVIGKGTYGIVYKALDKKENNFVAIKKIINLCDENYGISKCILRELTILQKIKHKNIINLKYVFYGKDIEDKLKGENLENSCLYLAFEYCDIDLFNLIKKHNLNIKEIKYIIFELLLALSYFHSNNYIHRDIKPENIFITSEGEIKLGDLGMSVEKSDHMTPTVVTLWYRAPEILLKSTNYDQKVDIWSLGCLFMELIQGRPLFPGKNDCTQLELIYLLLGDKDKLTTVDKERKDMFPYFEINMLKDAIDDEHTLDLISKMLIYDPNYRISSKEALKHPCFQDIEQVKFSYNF

Lysine--tRNA ligase = Lysine--tRNA ligase (Plasmodium falciparum (isolate 3D7), UniProt Q8IDJ8); test: MMV: KRS recombinant Plasmodium falciparum Lysyl-tRNA-synthetase, assay with yeast tRNA, ATP, and lysine and 3 uM MMV malaria box compound, assay read out with kinase glo as % inhibition.
Chain of Lysine--tRNA ligase (Q8IDJ8 whole entry): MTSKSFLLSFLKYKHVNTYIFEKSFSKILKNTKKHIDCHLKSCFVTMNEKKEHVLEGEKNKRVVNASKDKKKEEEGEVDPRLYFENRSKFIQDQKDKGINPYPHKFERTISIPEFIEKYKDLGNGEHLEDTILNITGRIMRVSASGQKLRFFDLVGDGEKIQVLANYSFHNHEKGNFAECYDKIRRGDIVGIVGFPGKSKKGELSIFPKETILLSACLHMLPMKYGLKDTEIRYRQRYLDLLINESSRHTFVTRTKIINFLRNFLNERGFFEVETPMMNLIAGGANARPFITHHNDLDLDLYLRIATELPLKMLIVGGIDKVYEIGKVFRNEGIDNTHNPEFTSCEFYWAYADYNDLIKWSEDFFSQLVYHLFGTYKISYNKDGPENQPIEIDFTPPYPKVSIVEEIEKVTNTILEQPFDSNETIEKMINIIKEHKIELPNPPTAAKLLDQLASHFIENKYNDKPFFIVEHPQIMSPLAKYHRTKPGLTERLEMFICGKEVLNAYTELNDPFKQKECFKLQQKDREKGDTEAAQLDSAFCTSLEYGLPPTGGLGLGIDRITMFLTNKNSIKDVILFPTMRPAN

Proline--tRNA ligase = biological target: T2, Proline--tRNA ligase (Plasmodium falciparum (isolate 3D7), UniProt Q8I5R7); test: MMV: ProRS recombinant Plasmodium falciparum Prolyl-tRNA-synthetase, assay with yeast tRNA, ATP, and proline and 3 uM MMV malaria box compound, assay read out with kinase glo as % inhibition.
T2 sequence (Q8I5R7 whole entry): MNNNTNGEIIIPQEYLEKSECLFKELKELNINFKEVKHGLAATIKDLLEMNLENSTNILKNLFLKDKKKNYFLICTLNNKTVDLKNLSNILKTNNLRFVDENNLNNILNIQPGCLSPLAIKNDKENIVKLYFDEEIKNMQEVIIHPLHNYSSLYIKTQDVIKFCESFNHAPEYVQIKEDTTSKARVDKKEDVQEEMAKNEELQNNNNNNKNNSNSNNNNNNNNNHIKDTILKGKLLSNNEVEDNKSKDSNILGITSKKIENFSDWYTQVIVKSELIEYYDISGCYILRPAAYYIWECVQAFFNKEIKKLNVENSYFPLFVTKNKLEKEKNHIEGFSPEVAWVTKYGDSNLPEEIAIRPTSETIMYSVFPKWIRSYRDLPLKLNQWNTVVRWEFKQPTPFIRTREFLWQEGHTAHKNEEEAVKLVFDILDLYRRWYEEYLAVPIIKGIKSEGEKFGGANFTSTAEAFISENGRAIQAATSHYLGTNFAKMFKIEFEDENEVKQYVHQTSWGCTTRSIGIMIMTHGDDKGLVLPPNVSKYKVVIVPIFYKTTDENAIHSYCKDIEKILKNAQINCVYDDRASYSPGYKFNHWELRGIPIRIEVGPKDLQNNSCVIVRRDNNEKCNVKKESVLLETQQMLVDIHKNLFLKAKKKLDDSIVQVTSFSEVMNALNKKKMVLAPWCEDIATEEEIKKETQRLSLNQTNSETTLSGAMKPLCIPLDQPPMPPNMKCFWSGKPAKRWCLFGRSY

[2] = biological target: T3, Mitogen-activated protein kinase (Plasmodium falciparum, UniProt Q25917); test: Final concentrations were 1 uM ATP, 0.5 mM DTT, 1 mM MgCl2, 0.5 mg/mL BSA, and 10 ug/ml MAP2 in a buffer of 50 mM HEPES (pH 7.0). 0.5 mg/mL histone III-S served as the substrate (13); 100 uM AMP-PNP, an ATP analog, was used as a control inhibitor. Incubation time was 4 hours.
T3 sequence (Q25917 whole entry): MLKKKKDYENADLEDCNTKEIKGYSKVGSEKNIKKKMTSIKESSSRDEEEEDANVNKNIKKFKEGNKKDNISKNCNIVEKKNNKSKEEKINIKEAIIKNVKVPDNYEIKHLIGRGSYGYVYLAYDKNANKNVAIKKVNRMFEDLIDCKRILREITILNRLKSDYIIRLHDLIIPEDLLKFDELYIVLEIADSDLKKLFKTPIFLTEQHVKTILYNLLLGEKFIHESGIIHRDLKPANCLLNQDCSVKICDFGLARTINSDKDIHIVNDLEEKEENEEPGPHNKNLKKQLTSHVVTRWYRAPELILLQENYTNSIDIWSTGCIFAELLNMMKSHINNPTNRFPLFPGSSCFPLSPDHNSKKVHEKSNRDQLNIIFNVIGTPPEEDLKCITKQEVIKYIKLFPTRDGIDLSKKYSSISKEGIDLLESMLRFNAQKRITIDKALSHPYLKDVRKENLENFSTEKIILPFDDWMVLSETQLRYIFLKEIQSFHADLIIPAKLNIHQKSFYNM

[3] = biological target: Calcium-dependent protein kinase 1 (Plasmodium falciparum, UniProt P62344); test: MMV: CDPK1 Protein kinase inhibition assay using recombinant PfCDPK1, syntide 2 peptide substrate, ATP and KinaseGlo to measure % inhibition at 1 uM MMV box compound.
Chain of Calcium-dependent protein kinase 1 (P62344 whole entry): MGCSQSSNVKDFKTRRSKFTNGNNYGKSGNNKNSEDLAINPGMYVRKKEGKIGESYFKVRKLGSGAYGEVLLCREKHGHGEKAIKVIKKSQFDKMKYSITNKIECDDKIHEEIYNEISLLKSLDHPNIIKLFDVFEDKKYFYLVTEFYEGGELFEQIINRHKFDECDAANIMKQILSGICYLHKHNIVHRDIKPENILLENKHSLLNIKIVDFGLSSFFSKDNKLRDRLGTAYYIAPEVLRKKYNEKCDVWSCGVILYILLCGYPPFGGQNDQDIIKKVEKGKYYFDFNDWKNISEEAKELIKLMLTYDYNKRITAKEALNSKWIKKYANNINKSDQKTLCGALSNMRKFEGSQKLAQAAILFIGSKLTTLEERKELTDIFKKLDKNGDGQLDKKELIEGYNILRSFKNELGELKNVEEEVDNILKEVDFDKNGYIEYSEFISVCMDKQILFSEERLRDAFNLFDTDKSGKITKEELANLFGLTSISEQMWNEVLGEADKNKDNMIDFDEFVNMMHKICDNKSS

[4] = biological target: T4, Calcium-dependent protein kinase 4 (Plasmodium falciparum (isolate 3D7), UniProt Q8IBS5); test: MMV: CDPK4 Protein kinase inhibition assay using recombinant PfCDPK4, syntide2 peptide substrate, ATP and KinaseGlo to measure % inhibition at 1 uM MMV box compound.
T4 sequence (Q8IBS5 whole entry): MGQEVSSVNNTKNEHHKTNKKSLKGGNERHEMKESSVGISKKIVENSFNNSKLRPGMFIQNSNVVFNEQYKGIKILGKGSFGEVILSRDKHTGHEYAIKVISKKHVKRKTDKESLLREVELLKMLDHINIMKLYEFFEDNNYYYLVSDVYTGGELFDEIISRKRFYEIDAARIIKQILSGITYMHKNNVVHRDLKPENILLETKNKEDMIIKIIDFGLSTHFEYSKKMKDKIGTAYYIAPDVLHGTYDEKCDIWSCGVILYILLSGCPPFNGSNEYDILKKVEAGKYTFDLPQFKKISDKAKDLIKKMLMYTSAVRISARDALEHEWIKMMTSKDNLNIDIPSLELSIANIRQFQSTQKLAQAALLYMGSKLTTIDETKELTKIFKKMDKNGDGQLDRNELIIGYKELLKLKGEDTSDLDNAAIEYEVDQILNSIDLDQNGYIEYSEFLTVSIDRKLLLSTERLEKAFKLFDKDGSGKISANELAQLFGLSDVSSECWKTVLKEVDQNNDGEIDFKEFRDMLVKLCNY

[5] = biological target: T5, Putative uncharacterized protein pk7 (Plasmodium falciparum, UniProt O96214); test: Final concentrations were 1 uM ATP, 2 mM DTT, 20 mM MgCl2, 2 mM MnCl2, 0.01% BSA, and 6 ug/ml PK7, in a buffer of 20 mM Tris-HCl (pH 7.5). The enzyme itself was the only substrate present (since autophosphorylation occurs); 100 uM 1NA-PP1 was used as a control inhibitor. Incubation time was 3 hours.
T5 sequence (O96214 whole entry): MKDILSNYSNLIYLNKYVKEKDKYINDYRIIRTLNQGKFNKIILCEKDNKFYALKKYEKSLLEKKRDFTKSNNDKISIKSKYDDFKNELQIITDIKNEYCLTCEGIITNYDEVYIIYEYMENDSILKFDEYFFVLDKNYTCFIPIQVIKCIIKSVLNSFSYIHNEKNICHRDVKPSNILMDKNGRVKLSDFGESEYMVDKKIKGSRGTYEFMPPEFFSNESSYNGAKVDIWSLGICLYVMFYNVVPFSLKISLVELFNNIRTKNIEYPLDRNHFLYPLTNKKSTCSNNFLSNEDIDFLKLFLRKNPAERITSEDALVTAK

SMILES | pIC50 [1] | pIC50 (Lysine--tRNA ligase) | pIC50 (Proline--tRNA ligase) | pIC50 [2] | pIC50 [3] | pIC50 [4] | pIC50 [5]
COc1cccc(Nc2nc(NCCO)c3ccccc3n2)c1 | < 6.00 | < 5.60 | < 5.60 | < 6.00 | < 6.00 | < 6.00 | < 6.00
COc1ccc(C(=O)Nc2ccc3nc(N4CCCCC4)cc(C)c3c2)cc1OC | < 6.00 | < 5.60 | < 5.60 | < 6.00 | < 6.00 | < 6.00 | < 6.00
COc1ccc(N2CCN(C(CNC(=O)C3CCCCC3)c3ccc4c(c3)OCO4)CC2)cc1 (configuration not stated) | < 6.00 | < 5.60 | < 5.60 | < 6.00 | < 6.00 | < 6.00 | < 6.00
Cn1c(=O)c2cc(C(=O)NCCCN3CCCCCC3)sc2c2ccccc21 | < 6.00 | < 5.60 | < 5.60 | < 6.00 | < 6.00 | < 6.00 | < 6.00
COc1ccc(CCN2CCC(CN(C)Cc3cnn(-c4ccccc4)c3)CC2)cc1 | < 6.00 | < 5.60 | < 5.60 | < 6.00 | < 6.00 | < 6.00 | < 6.00
O=C(NC(c1ccccc1)c1ccc2cccnc2c1O)c1ccccc1 (configuration not stated) | < 6.00 | < 5.60 | < 5.60 | < 6.00 | < 6.00 | < 6.00 | < 6.00
CCOc1cc(Cl)c(C(C)NC(=O)c2cccc(OC)c2)cc1OCC (configuration not stated) | < 6.00 | < 5.60 | < 5.60 | < 6.00 | < 6.00 | < 6.00 | < 6.00
Cc1ccc(Cl)cc1N1CCN(CCCNC(=O)C2CCN(c3nc4ccccc4[nH]3)CC2)CC1 | < 6.00 | < 5.60 | < 5.60 | < 6.00 | < 6.00 | < 6.00 | < 6.00
CC(NCc1ccccc1)c1cc(Cl)ccc1O (configuration not stated) | < 6.00 | < 5.60 | < 5.60 | < 6.00 | < 6.00 | < 6.00 | < 6.00
O=C(Nc1ccc(CN2CCOCC2)cc1)c1ccc(-c2ccc(Br)cc2)o1 | < 6.00 | < 5.60 | < 5.60 | < 6.00 | < 6.00 | < 6.00 | < 6.00
CCCC(c1nnnn1C1CCCCC1)N1CCN(C(=O)c2ccco2)CC1 (configuration not stated) | < 6.00 | < 5.60 | < 5.60 | < 6.00 | < 6.00 | < 6.00 | < 6.00
COc1cccc(-c2nn(C)c3sc(C(=O)NCCN4CCN(c5ccccc5F)CC4)cc23)c1 | < 6.00 | < 5.60 | < 5.60 | < 6.00 | < 6.00 | < 6.00 | < 6.00
Cc1ccc(CN2CCC(C(=O)Nc3ccc(-c4cc5ccccc5[nH]4)cc3)CC2)o1 | < 6.00 | < 5.60 | < 5.60 | < 6.00 | < 6.00 | < 6.00 | < 6.00
Cc1cc(C)c2nc(N3CCC(C(=O)NCCCN4CCC(N5CCCCC5)CC4)CC3)sc2c1 | < 6.00 | < 5.60 | < 5.60 | < 6.00 | < 6.00 | < 6.00 | < 6.00
COc1ccccc1CNC(=O)C1c2ccccc2C(=O)N(CC(C)C)C1c1cccs1 (configuration not stated) | < 6.00 | < 5.60 | < 5.60 | < 6.00 | < 6.00 | < 6.00 | < 6.00
CCN(CC)c1cc(C)c2cc(NC(=O)c3cccc(OC)c3)ccc2n1 | < 6.00 | < 5.60 | < 5.60 | < 6.00 | < 6.00 | < 6.00 | < 6.00
O=C(Nc1ccc(F)c(Cl)c1)Nc1ccc(Cl)c(Cl)c1 | < 6.00 | < 5.60 | < 5.60 | < 6.00 | < 6.00 | < 6.00 | < 6.00
CCOc1ccc(-c2nc(NC(=O)c3cccc(S(C)(=O)=O)c3)sc2C)cc1 | < 6.00 | < 5.60 | < 5.60 | < 6.00 | < 6.00 | < 6.00 | < 6.00
CCCc1c(C)nc2ccccc2c1O | < 6.00 | < 5.60 | < 5.60 | < 6.00 | < 6.00 | < 6.00 | < 6.00
CCOc1c(Cl)cc(CNC(C)C(O)c2ccccc2)cc1OC (configuration not stated) | < 6.00 | < 5.60 | < 5.60 | < 6.00 | < 6.00 | < 6.00 | < 6.00
CN1c2ccccc2N(C)C1c1ccc2c(c1)OCO2 | < 6.00 | < 5.60 | < 5.60 | < 6.00 | < 6.00 | < 6.00 | < 6.00
